# Measured values: patent publication US20240024273A1, “TOPICAL ADMINISTRATION OF 2-(DIETHYLAMINO)ETHYL 2-(4-ISOBUTYLPHENYL)PROPRIONATE FOR TREATMENT OF DISEASES” (TECHFIELDS PHARMA CO., LTD., priority 2020, published 2024)
# Tested on: Subjects with Osteoarthritis of the Knee
# Assay: Second Phase 2 study: safety (treatment-emergent adverse events)
# Type: in vivo, human
# Conditions: Oral Ibuprofen 3 × 400 mg, N = 71
# Text: Safety assessments will be performed at each visit and will include assessment of AEs, vital signs (blood pressure, pulse rate, and oral temperature), clinical laboratories, physical examination, skin irritation, and electrocardiograms (ECGs) as indicated in the study flow chart, Table 47.
# Safety assessments will include AEs, vital signs (blood pressures, pulse rate, and oral temperature), clinical laboratories, physical examination, skin irritation, and ECGs at various time points during the study as indicated in the study flow chart.
# Adverse events of interest include: local skin reactions around the treated knee(s), upper stomach pain, GI bleeding, serious cardiovascular side effects (e.g., thrombotic events, myocardial infarction, or stroke), jaundice, elevated liver function tests, and nausea.
# Safety analyses will be conducted on the SAS. Safety parameters will be listed and summarized using standard descriptive statistics, as appropriate. No formal statistical analyses are planned.
smiles,measurement,value
"CC(C)Cc1ccc(C(C)C(=O)O)cc1 (stereo not shown) [Ibuprofen, 2-(4-isobutylphenyl)propionic acid, reference compound]",Infections and Infestations: number of adverse events,32
same,Metabolism and Nutrition Disorders: number of adverse events,8
same,Metabolism and Nutrition Disorders: percentage of subjects with adverse events,11.3%
same,Metabolism and Nutrition Disorders: subjects with adverse events,8
same,Tooth Infection: number of adverse events,3
same,Urinary Tract Infection: number of adverse events,11
same,"Urinary Tract Infection: subjects with adverse events, number (percentage)",10(14.1%)
